Values joined by “and” are separate entries in the source; they are usually repeats but may differ in a detail not shown here. Equal entries are not always repeated.
Legend:
[1] = Qualitative solubility in organic solvents
[2] = Photodecomposition of phthalocyanines in toluene under white light, no added radical source; conditions: for decomp (%): toluene ~9 μM, no added alkene, white light 1.2 kJ/s/m^2
Protocol: The distance between the cuvette face and the lamp filament was 30 cm. Determination of the beam intensity at the cuvette face was made with a powermeter (Powermax, pm10, Coherent, Santa Clara, Calif.). The beam intensity was checked before each measurement.
Solutions for the photodecomposition experiments were prepared as follows. […] This assumption was justified on the basis that all of the silicon phthalocyanines studied contained simple, unsubstituted phthalocyanine rings. The extinction coefficients of the aluminum phthalocyanines were assumed to be 2.3×10^5, the extinction coefficient of AlPcOSi(CH3)2(CH2)3N(CH3)2, Pc 1.
The absorbance of the Q band of the solution, A, was determined with a spectrophotometer (Lambda 25, Perkin Elmer, Shelton, Conn.; fused silica cuvettes, 1.00 cm, 3.5 mL, Fisher Scientific). From A, ε, the cuvette path length, b, and Beer's law, the concentration of the solution, c, was determined. The solution was then diluted with toluene to a concentration of 9.2 μM. To verify that this was the concentration of the solution, its absorbance was measured again.
In a typical determination, the solution (3.00 mL) was placed in a cuvette (1.00 cm, 3.5 mL, Fisher Scientific, Pittsburgh, Pa.) and its absorbance was measured with the spectrometer (Lambda 25) before irradiation and at 2, 4, 6 and 8 h.
where A0 is the absorbance of the solution at time 0, and At is the absorbance at time t.

[3] = time 2 h, radiation 86 kJ/mol × 10^−6
[4] = time 4 h, radiation 172 kJ/mol × 10^−6
[5] = time 6 h, radiation 258 kJ/mol × 10^−6
[6] = time 8 h, radiation 344 kJ/mol × 10^−6

Substance	solubility (in words) [1]	stability in the dark [2]	decomp (%) ([2]; time 0 h)	decomp (%) [2, 3]	decomp (%) [2, 4]	decomp (%) [2, 5]	decomp (%) [2, 6]
SiPc[O(CH2)4CH3]2 [Pc 307]	soluble in CH2Cl2, dimethylformamide, pyridine and toluene, and insoluble in hexanes and methanol	stable in the dark	0%	23%	55%	80%	90%
SiPc[O(CH2CH═C(CH3)CH2)2CH2CH═C(CH3)2]2 [Pc 303]	soluble in CH2Cl2, dimethylformamide, pyridine and toluene, and insoluble in hexanes and methanol	stable in the dark	0%	1%	2%	2%	2%
SiPc[OC(O)(CH2)2(CH2CH═CH)4(CH2)4CH3]2 [Pc 299]	soluble in CH2Cl2, dimethylformamide, pyridine and toluene, slightly soluble in hexanes, and insoluble in methanol	–	0%	7% and 12%	12% and 21%	14% and 27%	17% and 33%
SiPc[OC(O)(CH2)6(CH2CH═CH)2(CH2)4CH3]2 [Pc 296]	soluble in CH2Cl2, dimethylformamide, pyridine and toluene, slightly soluble in hexanes, and insoluble in methanol	–	0%	2%	3%	4%	5%
SiPc[OC(O)CH2(CH2CH═CH)6CH2CH3]2 [Pc 300]	soluble in CH2Cl2, dimethylformamide, pyridine and toluene, slightly soluble in hexanes, and insoluble in methanol	–	0%	16%	34%	46%	56%

From patent publication US20120323164A1, “PHOTODYNAMIC THERAPY WITH PHTHALOCYANINES AND RADICAL SOURCES” (Case Western Reserve University, priority 2011, published 2012)
